Starred links: 1 amine or outer side, 2 acyl side, 3 side chain; linkers in the order of their positions; H or OH if unused. Positions of bridges follow the written chain, without caps; N, C: chain ends. Residues, ends and D or L forms follow the SMILES beside them. *: point of attachment. C20 diacid = O=C(O)CCCCCCCCCCCCCCCCCCC(=O)*; γGlu = O=C(O)[C@H](CCC(=O)[*:2])N[*:1]
Experiment: Assay (I) efficacy testing on appetite (food intake), ad libitum fed rat model
Format: in vivo, Sprague Dawley (SD) rats
Text: Sprague Dawley (SD) rats from Taconic Europe, Denmark are used for the experiments. The rats have a body weight 200-250 g at the start of experiment. The rats arrive at least 10-14 days before start of experiment to allow acclimatization to experimental settings. During this period the animals are handled at least 2 times. After arrival rats are housed individually for one week in a reversed light/dark phase (meaning that lights are off during daytime and on during nighttime) […]. Since rats are normally active and eat their major part of their daily food intake during the dark period, rats are dosed in the morning right before lights are turned off. This set-up results in the lowest data variation and highst test sensitivity. The experiment is conducted in the rats' home cages and rats have free access to food and water througout the acclimatization period and the experiment period. Each dose of derivative is tested in a group of 5-8 rats. A vehicle group of 6-8 rats is included in each set of testing. Rats are dosed once according to body weight with a 0.01-3 mg/kg solution administered intraperitoneally (ip), orally (po) or subcutaneously (sc). The time of dosing is recorded for each group. After dosing, the rats are returned to their home cages, where they then have access to food and water. The food consumption is recorded individually continuously by on-line registration or manually every hour for 7 hours, and then after 24 h and sometimes 48 h. At the end of the experimental session, the animals are euthanised.
The individual data are recorded in Microsoft excel sheets. Outliers are excluded after applying the Grubbs statistical evaluation test for outliers, and the result is presented graphically using the GraphPad Prism program.

Compound	Food intake reduction 0-24 h 3 nmol/kg (%) (0-24 h)	Food intake reduction 24-48 h 3 nmol/kg (%) (24-48 h)	Food intake reduction 0-24 h 30 nmol/kg (%) (30 nmol/kg, 0-24 h)	Food intake reduction 24-48 h 30 nmol/kg (%) (30 nmol/kg, 24-48 h)
CC[C@H](C)[C@H](NC(=O)[C@@H]1CCCN1C(=O)CNC(=O)[C@H](Cc1ccccc1)NC(=O)[C@H](CO)NC(=O)[C@H](CO)NC(=O)[C@H](CO)NC(=O)[C@H](CO)NC(=O)[C@H](CCCNC(=N)N)NC(=O)[C@H](Cc1c[nH]cn1)NC(=O)[C@H](CC(C)C)NC(=O)[C@H](Cc1ccccc1)NC(=O)[C@H](CCC(=O)O)NC(=O)[C@H](C)NC(=O)[C@H](CC(C)C)NC(=O)[C@H](CCCNC(=N)N)NC(=O)[C@H](CCC(N)=O)NC(=O)[C@@H](NC(=O)[C@H](C)NC(=O)[C@@H]1CSSC[C@H](NC(=O)[C@H](Cc2c[nH]cn2)NC(=O)CC[C@H](NC(=O)CCCCCCCCCCCCCCCCCCC(=O)O)C(=O)O)C(=O)N[C@@H](CC(N)=O)C(=O)N[C@@H]([C@@H](C)O)C(=O)N[C@@H](C)C(=O)N[C@@H]([C@@H](C)O)C(=O)N1)[C@@H](C)O)C(=O)N[C@@H](CC(C)C)C(=O)N1CCC[C@H]1C(=O)N1CCC[C@H]1C(=O)N[C@H](C(=O)N[C@@H](CC(=O)O)C(=O)N[C@H](C(=O)NCC(=O)N[C@@H](CO)C(=O)N[C@@H](CC(=O)O)C(=O)N[C@H](C(=O)N[C@@H](Cc1ccc(O)cc1)C(N)=O)[C@@H](C)O)C(C)C)[C@@H](C)O [compound 9] ({C20 diacid-γGlu}-HCNTATCATQRLAEFLHRSSSSFGPILPPTDVGSDTY-NH2; disulfide 2-7 (inferred); C-terminus assumed)	39	32	–	–
CC[C@H](C)[C@H](NC(=O)[C@@H]1CCCN1C(=O)CNC(=O)[C@H](Cc1ccccc1)NC(=O)[C@H](CC(N)=O)NC(=O)[C@H](CC(N)=O)NC(=O)[C@H](CO)NC(=O)[C@H](CO)NC(=O)[C@H](Cc1c[nH]cn1)NC(=O)[C@H](CCCNC(=N)N)NC(=O)[C@H](CC(C)C)NC(=O)[C@H](Cc1ccccc1)NC(=O)[C@H](CCC(=O)O)NC(=O)[C@H](C)NC(=O)[C@H](CC(C)C)NC(=O)[C@H](CCCNC(=N)N)NC(=O)[C@H](CCC(N)=O)NC(=O)[C@@H](NC(=O)[C@H](C)NC(=O)[C@@H]1CSSC[C@H](NC(=O)[C@H](Cc2c[nH]cn2)NC(=O)[C@H](Cc2c[nH]cn2)NC(=O)[C@H](Cc2c[nH]cn2)NC(=O)CC[C@H](NC(=O)CCCCCCCCCCCCCCCCCCC(=O)O)C(=O)O)C(=O)N[C@@H](CC(N)=O)C(=O)N[C@@H]([C@@H](C)O)C(=O)N[C@@H](C)C(=O)N[C@@H]([C@@H](C)O)C(=O)N1)[C@@H](C)O)C(=O)N[C@@H](CC(C)C)C(=O)N1CCC[C@H]1C(=O)N1CCC[C@H]1C(=O)N[C@H](C(=O)N[C@@H](CC(N)=O)C(=O)N[C@H](C(=O)NCC(=O)N[C@@H](CO)C(=O)N[C@@H](CC(N)=O)C(=O)N[C@H](C(=O)N[C@@H](Cc1ccc(O)cc1)C(N)=O)[C@@H](C)O)C(C)C)[C@@H](C)O [compound 12] ({C20 diacid-γGlu}-HHHCNTATCATQRLAEFLRHSSNNFGPILPPTNVGSNTY-NH2; disulfide 4-9)	–	–	70	45
CC[C@H](C)[C@H](NC(=O)[C@@H]1CCCN1C(=O)CNC(=O)[C@H](Cc1ccccc1)NC(=O)[C@H](CC(N)=O)NC(=O)[C@H](CC(N)=O)NC(=O)[C@H](CO)NC(=O)[C@H](CO)NC(=O)[C@H](CCCNC(=N)N)NC(=O)[C@@H](NC(=O)[C@H](CC(C)C)NC(=O)[C@H](Cc1ccccc1)NC(=O)[C@H](CCC(=O)O)NC(=O)[C@H](C)NC(=O)[C@H](CC(C)C)NC(=O)[C@H](CCCNC(=N)N)NC(=O)[C@H](CCC(N)=O)NC(=O)[C@@H](NC(=O)[C@H](C)NC(=O)[C@@H]1CSSC[C@H](NC(=O)[C@H](Cc2c[nH]cn2)NC(=O)CC[C@H](NC(=O)CCCCCCCCCCCCCCCCCCC(=O)O)C(=O)O)C(=O)N[C@@H](CC(N)=O)C(=O)N[C@@H]([C@@H](C)O)C(=O)N[C@@H](C)C(=O)N[C@@H]([C@@H](C)O)C(=O)N1)[C@@H](C)O)C(C)C)C(=O)N[C@@H](CC(C)C)C(=O)N1CCC[C@H]1C(=O)N1CCC[C@H]1C(=O)N[C@H](C(=O)N[C@@H](CC(N)=O)C(=O)N[C@H](C(=O)NCC(=O)N[C@@H](CO)C(=O)N[C@@H](CC(N)=O)C(=O)N[C@H](C(=O)N[C@@H](Cc1ccc(O)cc1)C(N)=O)[C@@H](C)O)C(C)C)[C@@H](C)O [compound 15] ({C20 diacid-γGlu}-HCNTATCATQRLAEFLVRSSNNFGPILPPTNVGSNTY-NH2; disulfide 2-7 (inferred); C-terminus assumed)	56	59	–	–
CC[C@H](C)[C@H](NC(=O)[C@@H]1CCCN1C(=O)CNC(=O)[C@H](Cc1ccccc1)NC(=O)[C@H](CC(N)=O)NC(=O)[C@H](CC(N)=O)NC(=O)[C@H](CO)NC(=O)[C@H](CO)NC(=O)[C@H](Cc1c[nH]cn1)NC(=O)[C@H](Cc1c[nH]cn1)NC(=O)[C@H](CC(C)C)NC(=O)[C@H](Cc1ccccc1)NC(=O)[C@H](CCC(=O)O)NC(=O)[C@H](C)NC(=O)[C@H](CC(C)C)NC(=O)[C@H](CCCNC(=N)N)NC(=O)[C@H](CCC(N)=O)NC(=O)[C@@H](NC(=O)[C@H](C)NC(=O)[C@@H]1CSSC[C@H](NC(=O)[C@H](Cc2c[nH]cn2)NC(=O)[C@H](Cc2c[nH]cn2)NC(=O)CC[C@H](NC(=O)CCCCCCCCCCCCCCCCCCC(=O)O)C(=O)O)C(=O)N[C@@H](CC(N)=O)C(=O)N[C@@H]([C@@H](C)O)C(=O)N[C@@H](C)C(=O)N[C@@H]([C@@H](C)O)C(=O)N1)[C@@H](C)O)C(=O)N[C@@H](CC(C)C)C(=O)N1CCC[C@H]1C(=O)N1CCC[C@H]1C(=O)N[C@H](C(=O)N[C@@H](CC(N)=O)C(=O)N[C@H](C(=O)NCC(=O)N[C@@H](CO)C(=O)N[C@@H](CC(N)=O)C(=O)N[C@H](C(=O)N[C@@H](Cc1ccc(O)cc1)C(N)=O)[C@@H](C)O)C(C)C)[C@@H](C)O [compound 17] ({C20 diacid-γGlu}-HHCNTATCATQRLAEFLHHSSNNFGPILPPTNVGSNTY-NH2; disulfide 3-8 (inferred); C-terminus assumed)	40	22	–	–
CC[C@H](C)[C@H](NC(=O)[C@@H]1CCCN1C(=O)CNC(=O)[C@H](Cc1ccccc1)NC(=O)[C@H](CC(N)=O)NC(=O)[C@H](CC(N)=O)NC(=O)[C@H](CO)NC(=O)[C@H](CO)NC(=O)[C@H](Cc1c[nH]cn1)NC(=O)[C@H](Cc1c[nH]cn1)NC(=O)[C@H](CC(C)C)NC(=O)[C@H](Cc1ccccc1)NC(=O)[C@H](CCC(=O)O)NC(=O)[C@H](C)NC(=O)[C@H](CC(C)C)NC(=O)[C@H](CCCNC(=N)N)NC(=O)[C@H](CCC(N)=O)NC(=O)[C@@H](NC(=O)[C@H](C)NC(=O)[C@@H]1CSSC[C@H](NC(=O)[C@H](Cc2c[nH]cn2)NC(=O)CC[C@H](NC(=O)CCCCCCCCCCCCCCCCCCC(=O)O)C(=O)O)C(=O)N[C@@H](CC(N)=O)C(=O)N[C@@H]([C@@H](C)O)C(=O)N[C@@H](C)C(=O)N[C@@H]([C@@H](C)O)C(=O)N1)[C@@H](C)O)C(=O)N[C@@H](CC(C)C)C(=O)N1CCC[C@H]1C(=O)N1CCC[C@H]1C(=O)N[C@H](C(=O)N[C@@H](CC(N)=O)C(=O)N[C@H](C(=O)NCC(=O)N[C@@H](CO)C(=O)N[C@@H](CC(N)=O)C(=O)N[C@H](C(=O)N[C@@H](Cc1ccc(O)cc1)C(N)=O)[C@@H](C)O)C(C)C)[C@@H](C)O [compound 18] ({C20 diacid-γGlu}-HCNTATCATQRLAEFLHHSSNNFGPILPPTNVGSNTY-NH2; disulfide 2-7)	40	32	–	–
CC[C@H](C)[C@H](NC(=O)[C@@H]1CCCN1C(=O)CNC(=O)[C@H](Cc1ccccc1)NC(=O)[C@H](CC(N)=O)NC(=O)[C@H](CC(N)=O)NC(=O)[C@H](CO)NC(=O)[C@H](CO)NC(=O)[C@H](Cc1c[nH]cn1)NC(=O)[C@H](Cc1c[nH]cn1)NC(=O)[C@H](CC(C)C)NC(=O)[C@H](Cc1ccccc1)NC(=O)[C@H](CCC(=O)O)NC(=O)[C@H](C)NC(=O)[C@H](CC(C)C)NC(=O)[C@H](CCCNC(=N)N)NC(=O)[C@H](CCC(N)=O)NC(=O)[C@@H](NC(=O)[C@H](C)NC(=O)[C@@H]1CSSC[C@H](NC(=O)[C@H](Cc2c[nH]cn2)NC(=O)[C@H](Cc2c[nH]cn2)NC(=O)[C@H](Cc2c[nH]cn2)NC(=O)CC[C@H](NC(=O)CCCCCCCCCCCCCCCCCCC(=O)O)C(=O)O)C(=O)N[C@@H](CCCNC(=N)N)C(=O)N[C@@H]([C@@H](C)O)C(=O)N[C@@H](C)C(=O)N[C@@H]([C@@H](C)O)C(=O)N1)[C@@H](C)O)C(=O)N[C@@H](CC(C)C)C(=O)N1CCC[C@H]1C(=O)N1CCC[C@H]1C(=O)N[C@H](C(=O)N[C@@H](CC(N)=O)C(=O)N[C@H](C(=O)NCC(=O)N[C@@H](CO)C(=O)N[C@@H](CC(N)=O)C(=O)N[C@H](C(=O)N[C@@H](Cc1ccc(O)cc1)C(N)=O)[C@@H](C)O)C(C)C)[C@@H](C)O [compound 22] ({C20 diacid-γGlu}-HHHCRTATCATQRLAEFLHHSSNNFGPILPPTNVGSNTY-NH2; disulfide 4-9 (inferred); C-terminus assumed)	26	5	–	–

— patent publication US9029325B2, “Amylin analogues and pharmaceutical compositions thereof” (Novo Nordisk A/S, priority 2011, dated 2015)
